≈ marks a conversion by molar mass, not a printed value. Like-named read-outs stand apart in the source and are kept apart here.
How the values were obtained:
[1] = system: Mycobacterium tuberculosis H37Ra; set-up: method as in Nawrot et al. 2021; details: previously published N‐pyridinyl benzamides; ref Nawrot et al. 2021; cited from earlier work
[2] = system: Mycobacterium tuberculosis H37Ra; test: Antimycobacterial microdilution broth MIC (resazurin), Mtb H37Ra; type: cell-based; details: for MIC: Mycobacterium tuberculosis, H37RA
[3] = system: Staphylococcus aureus CCM 4223, ATCC 29213; test: Antibacterial microdilution broth MIC, SA; type: cell-based; details: Staphylococcus aureus
[4] = system: Enterococcus faecalis CCM 4224, ATCC 29212; test: Antibacterial microdilution broth MIC, EF; type: cell-based
[5] = system: Mycolicibacterium smegmatis DSM 43465; test: Antimycobacterial microdilution broth MIC (resazurin), M. smegmatis; type: cell-based; details: DSM43465, read-out: MIC M. smegmatis
HepG2 cell line = test: Cytotoxicity CellTiter 96, HepG2; type: cell-based, human; details: Homo sapiens, HepG2, 24 h, 24 h incubation; ^c compound precipitated in the testing medium; ^d over the limit of tested concentrations
[6] = system: Candida albicans CCM 8320, ATCC 24433; test: Antifungal microdilution broth MIC, CA
[7] = system: Candida tropicalis CCM 8264, ATCC 750; test: Antifungal microdilution broth MIC, CT
[8] = system: Aspergillus fumigatus ATCC 204305; test: Antifungal microdilution broth MIC, AF
[9] = system: Klebsiella pneumoniae CCM 4415, ATCC 10031; test: Antibacterial microdilution broth MIC, KP
[10] = system: Lichtheimia corymbifera CCM 8077; test: Antifungal microdilution broth MIC, LC
[11] = system: Escherichia coli CCM 3954, ATCC 25922; test: Antibacterial microdilution broth MIC, EC; type: cell-based
[12] = system: Staphylococcus aureus subsp. aureus CCM 4750, ATCC 43300 (MRSA); test: Antibacterial microdilution broth MIC, MRSA; type: cell-based; details: Staphylococcus aureus
[13] = system: Aspergillus flavus CCM 8363; test: Antifungal microdilution broth MIC, AFla
[14] = system: Candida krusei CCM 8271, ATCC 6258; test: Antifungal microdilution broth MIC, CK; details: Pichia kudriavzevii
[15] = system: Staphylococcus epidermidis CCM 4418, ATCC 12228; test: Antibacterial microdilution broth MIC, SE; type: cell-based
[16] = system: Mycolicibacterium aurum DSM 43999; test: Antimycobacterial microdilution broth MIC (resazurin), M. aurum; type: cell-based; details: DSM43999, read-out: MIC M. aurum
[17] = system: Trichophyton interdigitale CCM 8377, ATCC 9533; test: Antifungal microdilution broth MIC, TI; details: Trichophyton interdigitale
[18] = system: Acinetobacter baumannii DSM 30007, ATCC 19606; test: Antibacterial microdilution broth MIC, ACI; type: cell-based
[19] = system: Pseudomonas aeruginosa CCM 3955, ATCC 27853; test: Antibacterial microdilution broth MIC, PA; type: cell-based
[20] = system: Candida parapsilosis CCM 8260, ATCC 22019; test: Antifungal microdilution broth MIC, CP; details: Lodderomyces parapsilosis
[21] = Calculated from MIC (μg/mL), read-out: MIC Mtb H37Ra
[22] = ATCC204305, 24 h, read-out: MIC AF 24h
[23] = ATCC204305, 48 h, read-out: MIC AF 48h
[24] = CCM8077, 24 h, read-out: MIC LC 24h
[25] = CCM8077, 48 h, read-out: MIC LC 48h
[26] = CCM8363, 24 h, read-out: MIC AFla 24h
[27] = CCM8363, 48 h, read-out: MIC AFla 48h

Row | SMILES | MIC ([3]; 24 h, read-out: MIC SA 24h) | MIC ([3]; 48 h, read-out: MIC SA 48h) | MIC ([4]; 24 h, read-out: MIC EF 24h) | MIC ([4]; 48 h, read-out: MIC EF 48h) | MIC [5] | IC50 (HepG2 cell line) | MIC ([6]; 24 h, read-out: MIC CA 24h) | MIC ([6]; 48 h, read-out: MIC CA 48h) | MIC ([7]; 24 h, read-out: MIC CT 24h) | MIC ([7]; 48 h, read-out: MIC CT 48h) | MIC [8, 22] | MIC [8, 23] | MIC KP 24h [9] | MIC KP 48h [9] | MIC [10, 24] | MIC [10, 25] | MIC ([11]; 24 h, read-out: MIC EC 24h) | MIC ([11]; 48 h, read-out: MIC EC 48h) | MIC ([12]; 24 h, read-out: MIC MRSA 24h) | MIC ([12]; 48 h, read-out: MIC MRSA 48h) | also measured
1 | O=C(Nc1ccccn1)c1cccc(C(F)(F)F)c1 [C00003 R1=H,R2=3-CF3] |  |  |  |  |  |  |  |  |  |  |  |  |  |  |  |  |  |  |  |  | MIC Mtb H37Ra (μg/mL), previously published compounds [1]: 31.25 µg/mL (≈ 117 µM)
2 | O=C(Nc1ccccn1)c1cccc(Cl)c1 [C00003 R1=H,R2=3-Cl] |  |  |  |  |  |  |  |  |  |  |  |  |  |  |  |  |  |  |  |  | MIC Mtb H37Ra (μg/mL), previously published compounds [1]: 62.5 µg/mL (≈ 269 µM)
3 | O=C(Cc1ccc(C(F)(F)F)cc1)Nc1ccc(Cl)cn1 [Compound 29] | > 500 µM | > 500 µM | > 500 µM | > 500 µM | > 500 µg/mL | > 50 µM | > 500 µM | > 500 µM | > 500 µM | > 500 µM | > 500 µM | > 500 µM | > 500 µM | > 500 µM | > 500 µM | > 500 µM | > 500 µM | > 500 µM | > 500 µM | > 500 µM | MIC [2, 21]: 397 µM; MIC ([2]; read-out: MIC Mtb H37Ra): 125 µg/mL; MIC [13, 26]: > 500 µM; MIC [13, 27]: > 500 µM; MIC ([14]; 24 h, read-out: MIC CK 24h): > 500 µM; MIC ([14]; 48 h, read-out: MIC CK 48h): > 500 µM; MIC ([15]; 24 h, read-out: MIC SE 24h): 250 µM (≈ 78.7 µg/mL); MIC ([15]; 48 h, read-out: MIC SE 48h): 250 µM (≈ 78.7 µg/mL); MIC [16]: > 500 µg/mL; MIC ([17]; 72 h, read-out: MIC TI 72h): > 500 µM; MIC ([17]; 120 h, read-out: MIC TI 120h): > 500 µM; MIC ([18]; 24 h, read-out: MIC ACI 24h): > 500 µM; MIC ([18]; 48 h, read-out: MIC ACI 48h): > 500 µM; MIC ([19]; 24 h, read-out: MIC PA 24h): > 500 µM; MIC ([19]; 48 h, read-out: MIC PA 48h): > 500 µM; MIC ([20]; 24 h, read-out: MIC CP 24h): > 500 µM; MIC ([20]; 48 h, read-out: MIC CP 48h): > 500 µM
4 | O=C(Cc1ccc(F)cc1)Nc1ccccn1 [Compound 31] | 500 µM (≈ 115 µg/mL) | > 500 µM | > 500 µM | > 500 µM | 62.5 µg/mL (≈ 271 µM) | 517 µM | > 500 µM | > 500 µM | > 500 µM | > 500 µM | > 500 µM | > 500 µM | > 500 µM | > 500 µM | > 500 µM | > 500 µM | > 500 µM | > 500 µM | > 500 µM | > 500 µM | MIC [2, 21]: 543 µM; MIC ([2]; read-out: MIC Mtb H37Ra): 125 µg/mL; MIC [13, 26]: > 500 µM; MIC [13, 27]: > 500 µM; MIC ([14]; 24 h, read-out: MIC CK 24h): 500 µM (≈ 115 µg/mL); MIC ([14]; 48 h, read-out: MIC CK 48h): 500 µM (≈ 115 µg/mL); MIC ([15]; 24 h, read-out: MIC SE 24h): 250 µM (≈ 57.6 µg/mL); MIC ([15]; 48 h, read-out: MIC SE 48h): > 500 µM; MIC [16]: 250 µg/mL (≈ 1090 µM); MIC ([17]; 72 h, read-out: MIC TI 72h): > 500 µM; MIC ([17]; 120 h, read-out: MIC TI 120h): > 500 µM; MIC ([18]; 24 h, read-out: MIC ACI 24h): > 500 µM; MIC ([18]; 48 h, read-out: MIC ACI 48h): > 500 µM; MIC ([19]; 24 h, read-out: MIC PA 24h): > 500 µM; MIC ([19]; 48 h, read-out: MIC PA 48h): > 500 µM; MIC ([20]; 24 h, read-out: MIC CP 24h): 500 µM (≈ 115 µg/mL); MIC ([20]; 48 h, read-out: MIC CP 48h): > 500 µM
5 | O=C(Cc1ccc(F)cc1)Nc1ccc(Cl)cn1 [Compound 32] | > 500 µM | > 500 µM | > 500 µM | > 500 µM | 62.5 µg/mL (≈ 236 µM) | > 250 µM | > 500 µM | > 500 µM | > 500 µM | > 500 µM | > 500 µM | > 500 µM | > 500 µM | > 500 µM | > 500 µM | > 500 µM | > 500 µM | > 500 µM | > 500 µM | > 500 µM | MIC ([2]; read-out: MIC Mtb H37Ra (μM)): 59 µM; MIC ([2]; read-out: MIC Mtb H37Ra (μg/mL)): 15.6 µg/mL; MIC [13, 26]: > 500 µM; MIC [13, 27]: > 500 µM; MIC ([14]; 24 h, read-out: MIC CK 24h): > 500 µM; MIC ([14]; 48 h, read-out: MIC CK 48h): > 500 µM; MIC ([15]; 24 h, read-out: MIC SE 24h): 125 µM (≈ 33.1 µg/mL); MIC ([15]; 48 h, read-out: MIC SE 48h): 125 µM (≈ 33.1 µg/mL); MIC [16]: 500 µg/mL (≈ 1890 µM); MIC ([17]; 72 h, read-out: MIC TI 72h): > 500 µM; MIC ([17]; 120 h, read-out: MIC TI 120h): > 500 µM; MIC ([18]; 24 h, read-out: MIC ACI 24h): > 500 µM; MIC ([18]; 48 h, read-out: MIC ACI 48h): > 500 µM; MIC ([19]; 24 h, read-out: MIC PA 24h): > 500 µM; MIC ([19]; 48 h, read-out: MIC PA 48h): > 500 µM; MIC ([20]; 24 h, read-out: MIC CP 24h): > 500 µM; MIC ([20]; 48 h, read-out: MIC CP 48h): > 500 µM
6 | O=C(Cc1ccc(F)cc1)Nc1cccc(Cl)n1 [Compound 33] | > 500 µM | > 500 µM | > 500 µM | > 500 µM | 500 µg/mL (≈ 1890 µM) | 213 µM | > 500 µM | > 500 µM | > 500 µM | > 500 µM | > 500 µM | > 500 µM | > 500 µM | > 500 µM | > 500 µM | > 500 µM | > 500 µM | > 500 µM | > 500 µM | > 500 µM | MIC [2, 21]: 59 µM; MIC ([2]; read-out: MIC Mtb H37Ra): 15.6 µg/mL; SI (selectivity index) ([2]; SI = HepG2 IC50 (μM)/MIC MtbH37Ra (μM), calculated for compounds with MIC ≤ 31.25 μg/mL): 3.6; MIC [13, 26]: > 500 µM; MIC [13, 27]: > 500 µM; MIC ([14]; 24 h, read-out: MIC CK 24h): 31.2 µM (≈ 8.27 µg/mL); MIC ([14]; 48 h, read-out: MIC CK 48h): 62.5 µM (≈ 16.5 µg/mL); MIC ([15]; 24 h, read-out: MIC SE 24h): > 500 µM; MIC ([15]; 48 h, read-out: MIC SE 48h): > 500 µM; MIC [16]: 250 µg/mL (≈ 945 µM); MIC ([17]; 72 h, read-out: MIC TI 72h): > 500 µM; MIC ([17]; 120 h, read-out: MIC TI 120h): > 500 µM; MIC ([18]; 24 h, read-out: MIC ACI 24h): > 500 µM; MIC ([18]; 48 h, read-out: MIC ACI 48h): > 500 µM; MIC ([19]; 24 h, read-out: MIC PA 24h): > 500 µM; MIC ([19]; 48 h, read-out: MIC PA 48h): > 500 µM; MIC ([20]; 24 h, read-out: MIC CP 24h): > 500 µM; MIC ([20]; 48 h, read-out: MIC CP 48h): > 500 µM

— article PMC11748363, “Antimicrobial and Antiproliferative Properties of 2‐Phenyl‐N‐(Pyridin‐2‐yl)acetamides” (Chemical Biology & Drug Design, 2025)
